# Patent publication US5620676A, “Biologically active ATP analogs” (priority 1995, dated 1997)
# “Also recorded” adds a separate entry of the source.
# Experiments:
# [1] = biological target: T1, adenylyl cyclase linked P2Y receptor (C6 rat glioma cells) (Rattus norvegicus, UniProt Q9EPX4); test: Inhibition of adenylyl cyclase in C6 rat glioma cells; type: cell-based; conditions: for selectivity for the adenylyl cyclase linked (C6 cell) receptor: versus phospholipase C linked turkey erythrocyte receptor
# T1 construct: endogenous in cells; host or cells: C6 rat glioma cells
# Summary of the method: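 C6 cells labelled 2 h with [3H]adenine, preincubated 10 min at 37 °C in HEPES-buffered Eagle's medium (pH 7.5) with 200 μM IBMX. Stimulated 10 min with 10 μM isoproterenol plus varied nucleotide concentrations. Stopped with ice-cold 5% trichloroacetic acid.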
# [2] = system: P2X receptor (rat urinary bladder membranes); test: Displacement of [3H]-α,β-methylene-ATP from rat urinary bladder membranes; type: binding; conditions: about 10 nM [3H]-α,β-MeATP
# Experimental: Certain ATP analogs known to bind to P2Y receptors, as disclosed in Examples 4-9, were tested on membrane preparations of urinary bladder, which is known to include P2X receptors (See, e.g., Lukacsko et al., Eur. J. Pharmacol., 80, 401-406 (1982)). The assay used is predicated on the specific displacement of […] known to bind at the P2X receptor, namely α,β-methylene-ATP.
# For this assay, male Wistar rats (200-250 g) were killed by asphyxiation with CO2. […] The pellets were washed and suspended in buffer A and the protein content was determined using the method of Peterson (Anal. Biochem., 83, 346-356 (1977)).
# Displacement experiments were carried out by incubating the membrane preparations with about 10 nM [^3 H]-α,β-MeATP and various concentrations of an unlabeled ligand in buffer A at 4° C. for 120 min (final volume 0.5 ml). […] The filters were washed with 2 aliquots of 5 ml ice-cold 5 mM Tris/HCl buffer, pH 7.4, dried under an infrared lamp, and then the radioactivity trapped in the filters was measured in a Beckman SC6100 I scintillation counter with an efficiency of about 56 to 61%. Non-specific binding was determined by including 100 μM β,γ-methylene-ATP in the incubation mixture.
# [3] = biological target: T2, P2X receptor (vas deferens) (Cavia porcellus, UniProt A0A286XVA9); test: Contraction of guinea pig isolated vas deferens
# T2 sequence (A0A286XVA9 1-399): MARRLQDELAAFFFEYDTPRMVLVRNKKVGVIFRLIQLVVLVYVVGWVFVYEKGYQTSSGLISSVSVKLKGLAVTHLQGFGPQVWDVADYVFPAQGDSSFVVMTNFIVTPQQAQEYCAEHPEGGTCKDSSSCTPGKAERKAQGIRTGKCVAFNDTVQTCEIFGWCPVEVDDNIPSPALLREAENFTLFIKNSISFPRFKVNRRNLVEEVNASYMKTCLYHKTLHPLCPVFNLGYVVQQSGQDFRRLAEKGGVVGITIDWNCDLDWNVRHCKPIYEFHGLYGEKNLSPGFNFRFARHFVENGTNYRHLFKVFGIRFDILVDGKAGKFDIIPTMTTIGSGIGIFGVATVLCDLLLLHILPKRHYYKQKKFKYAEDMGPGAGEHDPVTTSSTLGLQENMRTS
# P2Y receptors = test: Overall activity in P2Y receptor systems
# Experimental: Phospholipase C activity: Stimulation of inositol phosphate formation by compounds of the present invention was measured in turkey erythrocyte membranes as described by Harden et al., supra and Boyer et al., supra. The K0.5 values were averaged from 3-8 independently determined dose-response curves for each compound. Briefly, one ml of washed turkey erythrocytes was incubated in inositol-free medium (DMEM; Gibco) with 0.5-1 mCi of 2-[^3 H]myoinositol (20 Ci/mmol; American Radiolabeled Chemicals Inc., St. Louis, Mo.)for 18-24 h in a humidified atmosphere of 95% air 5% CO2 at 37° C. Erythrocyte ghosts were prepared by rapid lysis in hypotonic buffer (5 mM sodium phosphate, pH 7.4, 5 mM MgCl2, 1 mM EGTA) as described by Boyer et al., supra. Phospholipase C activity was measured in 25 μl of [^3 H]inositol-labeled ghosts (≈175 μg of protein, 200-500,000 cpm/assay) in a medium containing 424 μM CaC12, 0.91 mM MgSO4, 2 mM EGTA, 115 mM KCl, 5 mM KH2 PO4, and 10 mM Hepes, pH 7.0. Assay (100 μl or 200 μl final volume) contained 1 μM GTPγS and the indicated concentrations of nucleotide analogs. Ghosts were incubated at 30° C. for 5 min, and total [^3 H]inositol phosphates were quantitated after purification by anion exchange chromatography according to Harden et al. (supra) and Boyer et al. (supra).
# Muscular relaxation/contraction: Relaxant responses mediated via P2Y receptors were examined in guinea pig taenia coli, rabbit aorta, and rabbit mesenteric artery, as described by Hoyle et al. (Br. J. Pharmacol., 107, 367-374 (1992a)), Burnstock et al., (Br. J. Pharmacol., 90, 383-391 (1987a)), and Rubino et al., (Eur. J. Pharmacol., 212, 237-240 (1992)). Contractile responses mediated via P2X receptors were examined in the guinea pig urinary bladder and vas deferens, and rabbit saphenous artery, also using standard methods (see Hoyle et al., supra., 1992; Hoyle et al., Br. J. Pharmacol., 99, 617-621 (1990); and Burnstock et al., Br. J. Pharmacol., 90, 111-120 (1987b)).
# P2X and P2Y receptors = test: Overall activity in the seven P2X and P2Y preparations
# T1 sequence (Q9EPX4 whole entry): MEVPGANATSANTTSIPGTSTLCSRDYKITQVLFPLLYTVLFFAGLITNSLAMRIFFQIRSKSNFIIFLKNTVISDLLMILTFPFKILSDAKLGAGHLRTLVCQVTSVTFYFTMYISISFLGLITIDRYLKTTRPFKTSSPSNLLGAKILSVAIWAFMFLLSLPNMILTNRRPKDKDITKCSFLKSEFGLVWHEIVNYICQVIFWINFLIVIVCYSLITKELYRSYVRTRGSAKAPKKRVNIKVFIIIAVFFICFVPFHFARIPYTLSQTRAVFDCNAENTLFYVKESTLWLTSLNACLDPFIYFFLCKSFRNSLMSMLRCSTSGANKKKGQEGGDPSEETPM
SMILES,"IC50 ([1]; C6 rat glioma cells, 10 μM isoproterenol, read-out: K0.5 values (in nM) for inhibition of adenylyl cyclase in C6 cells)",selectivity for the adenylyl cyclase linked (C6 cell) receptor [1],P2X binding in words [2],"activity/potency in words, vas deferens [3]","overall activity in words, P2Y systems (P2Y receptors; listed as 2-(6-cyanohexyl)thio ATP)","overall activity in words, P2Y systems (P2Y receptors; listed as 2-(6-cyanohexylthio)-ATP)","overall activity in words, all preparations (P2X and P2Y receptors)"
"C=CCCCCSc1nc(NC)c2ncn([C@@H]3O[C@H](COP(=O)(O)OP(=O)(O)OP(=O)(O)O)[C@@H](O)[C@H]3O)c2n1 [N^6 -Me-2-(5-hexenyl)-thio-ATP, N^6 -Me-2-(5-hexenylthio)adenosine 5'-triphosphate]",0.32 nM,81 -fold,two orders of magnitude greater concentration,,,,
"N#CCCCCCCSc1nc(N)c2ncn([C@@H]3O[C@H](COP(=O)(O)OP(=O)(O)OP(=O)(O)O)[C@@H](O)[C@H]3O)c2n1 [2-(6-Cyanohexylthio)-ATP, 2-(6-Cyanohexylthio)adenosine-5'-triphosphate]",,3.9 -fold,,potent agonists in the vas deferens and urinary bladder,by far the most potent agonist in several P2Y receptor preparations,the most potent compound in all of the P2Y receptor assays; also recorded: nanomolar potency,more potent than ATP in all systems except the P2X system of the saphenous artery
